In patent publication US9169199B2, “Cycloalkyl guanidine F1F0-ATPase inhibitors and therapeutic uses thereof” (Lycera Corporation, priority 2010, dated 2015):

Experiments:
F1F0-ATPase = biological target: T1, F1F0-ATPase (Bos taurus, UniProt P13621); assay: Inhibition of ATP synthesis by the F1F0-ATPase; assay type: biochemical
T1 construct: from tissue
Procedure: (§1) Compounds in Example 4 above were tested for activity against F1F0-ATPase by measuring ATP synthesis. In addition, the compounds were assessed for cytotoxicity in Ramos cells. Inhibition of ATP synthesis by the F1F0-ATPase and cytotoxicity in Ramos cells were measured according to the procedures described in K. M. Johnson et al. Chemistry & Biology 2005, 12, 485-496.

Ramos cells = assay: Cytotoxicity in Ramos cells; assay type: cell-based; details: Homo sapiens, read-out: Ramos cell EC50
Procedure: as §1

Structure (SMILES) | IC50 (F1F0-ATPase) [µM] | EC50 (Ramos cells) [µM]
CCOC(=O)N[C@H]1CC[C@H](N/C(=N\C(=O)c2ccc(F)c(F)c2)NCc2ccc(F)cc2F)CC1 [Compound 58] | < 10 | < 10
CCOC(=O)N[C@H]1CC[C@H](N/C(=N\C(=O)c2ccc(F)c(F)c2)NCc2cc(F)cc(F)c2)CC1 [Compound 59] | < 10 | < 10
CCOC(=O)N[C@H]1CC[C@H](N/C(=N\C(=O)c2ccc(F)c(F)c2)NCc2ccc(F)cc2Cl)CC1 [Compound 60] | < 10 | < 10
CCOC(=O)N[C@H]1CC[C@H](N/C(=N\C(=O)c2ccc(F)c(F)c2)NCc2ccc(F)c(Cl)c2)CC1 [Compound 61] | < 10 | < 10
CCOC(=O)N[C@H]1CC[C@H](N/C(=N\C(=O)c2ccc(F)c(F)c2)NCc2ccc(Cl)c(F)c2)CC1 [Compound 62] | < 10 | < 10
CCOC(=O)N[C@H]1CC[C@H](N/C(=N\C(=O)c2ccc(F)c(F)c2)NCc2ccc(Cl)cc2F)CC1 [Compound 63] | < 10 | < 10
CCOC(=O)N[C@H]1CC[C@H](N/C(=N\C(=O)c2ccc(F)c(F)c2)Nc2ccccc2C2CC2)CC1 [Compound 66] | < 10 | < 10
O=C(/N=C(/Nc1ccccc1C1CC1)N[C@H]1CC[C@H](Nc2ncccn2)CC1)c1ccc(F)c(F)c1 [Compound 67] | < 10 | > 10
O=C(/N=C(/Nc1ccc(Cl)c(F)c1)N[C@H]1CC[C@H](O)CC1)c1ccc(C(F)(F)F)cc1 [Compound 68] | < 10 | < 10
O=C(/N=C(/Nc1cccc(Cl)c1F)N[C@H]1CC[C@H](O)CC1)c1ccc(C(F)(F)F)cc1 [Compound 69] | < 10 | < 10
O=C(Cc1ccc(Cl)cc1)/N=C(\Nc1cc(F)cc(Cl)c1)N[C@H]1CC[C@H](O)CC1 [Compound 71] | < 10 | > 10
O=C(/N=C(/NCc1ccc(Cl)cc1F)N[C@H]1CC[C@H](Nc2ncccn2)CC1)c1ccc(F)c(F)c1 [Compound 72] | < 10 | < 10
O=C(/N=C(/NCc1ccc(F)cc1Cl)N[C@H]1CC[C@H](Nc2ncccn2)CC1)c1ccc(F)c(F)c1 [Compound 73] | < 10 | < 10
O=C(/N=C(/NCc1ccc(F)c(Cl)c1)N[C@H]1CC[C@H](Nc2ncccn2)CC1)c1ccc(F)c(F)c1 [Compound 74] | < 10 | < 10
O=C(/N=C(/NCc1ccc(Cl)c(F)c1)N[C@H]1CC[C@H](Nc2ncccn2)CC1)c1ccc(F)c(F)c1 [Compound 75] | < 10 | < 10
CCOC(=O)N[C@H]1CC[C@H](N/C(=N\C(=O)c2ccc(F)c(F)c2)NC2CCCCC2)CC1 [Compound 76] | < 10 | > 10
CCOC(=O)N[C@H]1CC[C@H](N/C(=N\C(=O)c2ccc(F)c(F)c2)NC2CCC(C)CC2)CC1 (stereo partly shown) [Compound 77] | < 10 | < 10
CC(C)(C)OC(=O)N[C@H]1CC[C@H](N/C(=N\C(=O)c2ccc(F)c(F)c2)Nc2cccc(Cl)c2)CC1 [Compound 78] | < 10 | < 10
N[C@H]1CC[C@H](N/C(=N\C(=O)c2ccc(F)c(F)c2)Nc2cccc(Cl)c2)CC1 [Compound 79] | > 10 | < 10
CCOC(=O)N[C@H]1CC[C@H](N/C(=N\C(=O)c2ccc(F)c(F)c2)Nc2cc(C(C)(C)C)on2)CC1 [Compound 80] | > 10 | > 10
CCOC(=O)N[C@H]1CC[C@H](N/C(=N\C(=O)c2ccc(F)c(F)c2)Nc2ccc(F)c(Cl)c2)CC1 [Compound 81] | < 10 | < 10
CCOC(=O)N[C@H]1CC[C@H](N/C(=N\C(=O)c2ccc(F)c(F)c2)Nc2cccc(Cl)c2F)CC1 [Compound 82] | < 10 | < 10
O=C(/N=C(/Nc1ccc(F)c(Cl)c1)N[C@H]1CC[C@H](Nc2ncccn2)CC1)c1ccc(F)c(F)c1 [Compound 83] | < 10 | < 10
